Experimental data published in BindingDB's records for doi:10.1074/jbc.M203194200 (Tanabe Seiyaku, 2002).

Target: Oxoeicosanoid receptor 1 (Homo sapiens, UniProt Q8TDS5)
Sequence (Q8TDS5 as listed by the source): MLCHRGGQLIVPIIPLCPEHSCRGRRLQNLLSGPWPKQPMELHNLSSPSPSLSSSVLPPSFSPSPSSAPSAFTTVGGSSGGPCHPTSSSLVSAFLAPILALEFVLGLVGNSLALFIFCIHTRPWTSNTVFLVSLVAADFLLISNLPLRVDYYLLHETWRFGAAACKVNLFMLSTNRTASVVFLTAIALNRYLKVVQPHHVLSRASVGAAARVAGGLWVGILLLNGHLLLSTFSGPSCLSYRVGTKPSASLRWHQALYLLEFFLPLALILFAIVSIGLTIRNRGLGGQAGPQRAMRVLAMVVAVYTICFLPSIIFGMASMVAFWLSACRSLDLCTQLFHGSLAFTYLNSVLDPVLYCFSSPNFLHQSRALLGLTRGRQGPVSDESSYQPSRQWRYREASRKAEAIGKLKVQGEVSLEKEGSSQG

Row | Compound | Ki [µM]
1 | CC/C=C\C/C=C\C/C=C\C/C=C\C/C=C\CCCC(=O)O [5,8,11,14,17-EICOSAPENTAENOIC ACID] | 6
2 | CCCCC/C=C\C/C=C\C/C=C\CCCCCCC(=O)O [(Z,Z,Z)-8,11,14-Eicosatrienoic acid] | 3.7
3 | CC/C=C\C/C=C\C/C=C\C/C=C\C/C=C\C/C=C\CCC(=O)O [all-cis-docosa-4,7,10,13,16,19-hexaenoic acid] | 1.6
